In PubChem BioAssay (NCI):
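Grown in 96-well plates, cells were treated for 48 hours with each compound at five concentrations. Insufficient inhibition: endpoint recorded as highest concentration tested. At the GI50, growth is halved. TGI: concentration producing complete growth inhibition.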

Legend:
Test in all cases: NCI anticancer screen, dose series, 48 h
MDA-MB-231 breast = test system: MDA-MB-231 breast
U251 CNS = test system: U251 CNS
NCI-H226 lung = test system: NCI-H226 lung
TK-10 renal = test system: TK-10 renal
SW-620 colon = test system: SW-620 colon
PC-3 prostate = test system: PC-3 prostate
OVCAR-4 ovarian = test system: OVCAR-4 ovarian
MCF7 breast = test system: MCF7 breast
OVCAR-5 ovarian = test system: OVCAR-5 ovarian
KM12 colon = test system: KM12 colon
SK-OV-3 ovarian = test system: SK-OV-3 ovarian
M14 melanoma = test system: M14 melanoma
OVCAR-8 ovarian = test system: OVCAR-8 ovarian
UO-31 renal = test system: UO-31 renal
NCI/ADR-RES ovarian = test system: NCI/ADR-RES ovarian
SNB-19 CNS = test system: SNB-19 CNS
CAKI-1 renal = test system: CAKI-1 renal
HCT-116 colon = test system: HCT-116 colon
786-0 renal = test system: 786-0 renal
ACHN renal = test system: ACHN renal
SK-MEL-28 melanoma = test system: SK-MEL-28 melanoma
LOX IMVI melanoma = test system: LOX IMVI melanoma
IGROV1 ovarian = test system: IGROV1 ovarian
A549 NSCLC = test system: A549 NSCLC
SF-268 CNS = test system: SF-268 CNS
HT29 colon = test system: HT29 colon
HOP-62 NSCLC = test system: HOP-62 NSCLC
MALME-3M melanoma = test system: MALME-3M melanoma
SK-MEL-5 melanoma = test system: SK-MEL-5 melanoma
HS 578T breast = test system: HS 578T breast
K-562 leukemia = test system: K-562 leukemia
COLO 205 colon = test system: COLO 205 colon
MDA-MB-435 = test system: MDA-MB-435
DU-145 prostate = test system: DU-145 prostate
OVCAR-3 ovarian = test system: OVCAR-3 ovarian
EKVX NSCLC = test system: EKVX NSCLC
NCI-H23 lung = test system: NCI-H23 lung
A498 renal = test system: A498 renal
SF-295 CNS = test system: SF-295 CNS
UACC-257 melanoma = test system: UACC-257 melanoma
SF-539 CNS = test system: SF-539 CNS
NCI-H460 lung = test system: NCI-H460 lung
HCT-15 colon = test system: HCT-15 colon
T-47D breast = test system: T-47D breast
HOP-92 NSCLC = test system: HOP-92 NSCLC
NCI-H522 lung = test system: NCI-H522 lung

`NS(=O)(=O)c1ccc(NC(=O)c2ccc(NC3=C(Cl)C(=O)N(Cc4ccccc4)C3=O)cc2)cc1` was tested. Which GI50 (MDA-MB-231 breast) did it give?
Its GI50 is 2.65 µM.

What about the TGI (MDA-MB-231 breast) of the same compound?
Its TGI is 8.11 µM.

What about the GI50 (U251 CNS) of the same compound?
The GI50 was 5.37 µM.

And the TGI (U251 CNS)?
Its TGI is 24.7 µM.

And the GI50 (NCI-H226 lung)?
Its GI50 is 2.12 µM.

And the TGI (NCI-H226 lung)?
Its TGI is 5.91 µM.

And the GI50 (TK-10 renal)?
Its GI50 is > 100 µM.

What about the TGI (TK-10 renal) of the same compound?
Its TGI is > 100 µM.

What about the GI50 (SW-620 colon) of the same compound?
The GI50 was 2.69 µM.

And the TGI (SW-620 colon)?
The TGI was 7.78 µM.

What about the GI50 (PC-3 prostate) of the same compound?
The GI50 was 12.8 µM.

What about the TGI (PC-3 prostate) of the same compound?
Its TGI is 34 µM.

What about the GI50 (OVCAR-4 ovarian) of the same compound?
Its GI50 is 13.7 µM.

And the TGI (OVCAR-4 ovarian)?
The TGI was > 100 µM.

And the GI50 (MCF7 breast)?
The GI50 was 3.03 µM.

And the TGI (MCF7 breast)?
The TGI was > 100 µM.

And the GI50 (OVCAR-5 ovarian)?
The GI50 was 15.5 µM.

What about the TGI (OVCAR-5 ovarian) of the same compound?
The TGI was 33.1 µM.

What about the GI50 (KM12 colon) of the same compound?
Its GI50 is 48.7 µM.

And the TGI (KM12 colon)?
The TGI was > 100 µM.

What about the GI50 (SK-OV-3 ovarian) of the same compound?
The GI50 was 41 µM.

And the TGI (SK-OV-3 ovarian)?
Its TGI is > 100 µM.

And the GI50 (M14 melanoma)?
The GI50 was 12 µM.

What about the TGI (M14 melanoma) of the same compound?
Its TGI is 34.6 µM.

And the GI50 (OVCAR-8 ovarian)?
The GI50 was 10.2 µM.

And the TGI (OVCAR-8 ovarian)?
The TGI was > 100 µM.

What about the GI50 (UO-31 renal) of the same compound?
The GI50 was 79.3 µM.

And the TGI (UO-31 renal)?
The TGI was > 100 µM.

And the GI50 (NCI/ADR-RES ovarian)?
The GI50 was 19.6 µM.

What about the TGI (NCI/ADR-RES ovarian) of the same compound?
Its TGI is 43.3 µM.

What about the GI50 (SNB-19 CNS) of the same compound?
The GI50 was > 100 µM.

What about the TGI (SNB-19 CNS) of the same compound?
The TGI was > 100 µM.

What about the GI50 (CAKI-1 renal) of the same compound?
The GI50 was 14.8 µM.

And the TGI (CAKI-1 renal)?
Its TGI is 29.3 µM.

What about the GI50 (HCT-116 colon) of the same compound?
Its GI50 is 2.68 µM.

And the TGI (HCT-116 colon)?
Its TGI is 10.3 µM.

What about the GI50 (786-0 renal) of the same compound?
Its GI50 is 3.38 µM.

And the TGI (786-0 renal)?
Its TGI is 12.5 µM.

What about the GI50 (ACHN renal) of the same compound?
The GI50 was 13.7 µM.

And the TGI (ACHN renal)?
Its TGI is 26.6 µM.

What about the GI50 (SK-MEL-28 melanoma) of the same compound?
Its GI50 is 4.16 µM.

And the TGI (SK-MEL-28 melanoma)?
The TGI was > 100 µM.

And the GI50 (LOX IMVI melanoma)?
Its GI50 is 3.35 µM.

And the TGI (LOX IMVI melanoma)?
Its TGI is 39 µM.

And the GI50 (IGROV1 ovarian)?
The GI50 was 3 µM.

What about the TGI (IGROV1 ovarian) of the same compound?
Its TGI is > 100 µM.

And the GI50 (A549 NSCLC)?
The GI50 was 29.1 µM.

And the TGI (A549 NSCLC)?
Its TGI is > 100 µM.

And the GI50 (SF-268 CNS)?
The GI50 was 7.25 µM.

What about the TGI (SF-268 CNS) of the same compound?
The TGI was > 100 µM.

What about the GI50 (HT29 colon) of the same compound?
The GI50 was 5.92 µM.

What about the TGI (HT29 colon) of the same compound?
The TGI was 17 µM.

What about the GI50 (HOP-62 NSCLC) of the same compound?
The GI50 was 10.4 µM.

What about the TGI (HOP-62 NSCLC) of the same compound?
The TGI was 22.1 µM.

What about the GI50 (MALME-3M melanoma) of the same compound?
Its GI50 is 49.4 µM.

What about the TGI (MALME-3M melanoma) of the same compound?
The TGI was > 100 µM.

What about the GI50 (SK-MEL-5 melanoma) of the same compound?
The GI50 was 10.9 µM.

What about the TGI (SK-MEL-5 melanoma) of the same compound?
The TGI was 24.1 µM.

What about the GI50 (HS 578T breast) of the same compound?
Its GI50 is 1.64 µM.

What about the TGI (HS 578T breast) of the same compound?
The TGI was 4.5 µM.

And the GI50 (K-562 leukemia)?
Its GI50 is 3.26 µM.

And the TGI (K-562 leukemia)?
The TGI was > 100 µM.

And the GI50 (COLO 205 colon)?
The GI50 was 15.1 µM.

And the TGI (COLO 205 colon)?
The TGI was > 100 µM.

And the GI50 (MDA-MB-435)?
Its GI50 is 10.6 µM.

And the TGI (MDA-MB-435)?
Its TGI is 26.5 µM.

And the GI50 (DU-145 prostate)?
The GI50 was 17 µM.

What about the TGI (DU-145 prostate) of the same compound?
Its TGI is 30.6 µM.

What about the GI50 (OVCAR-3 ovarian) of the same compound?
Its GI50 is 1.89 µM.

And the TGI (OVCAR-3 ovarian)?
Its TGI is 7.88 µM.

What about the GI50 (EKVX NSCLC) of the same compound?
Its GI50 is 61.9 µM.

And the TGI (EKVX NSCLC)?
The TGI was > 100 µM.

What about the GI50 (NCI-H23 lung) of the same compound?
Its GI50 is 3.42 µM.

And the TGI (NCI-H23 lung)?
The TGI was 14.3 µM.

What about the GI50 (A498 renal) of the same compound?
The GI50 was 14.9 µM.

What about the TGI (A498 renal) of the same compound?
The TGI was 32.6 µM.

And the GI50 (SF-295 CNS)?
Its GI50 is 3.03 µM.

And the TGI (SF-295 CNS)?
The TGI was 17.8 µM.

And the GI50 (UACC-257 melanoma)?
The GI50 was 18.2 µM.

What about the TGI (UACC-257 melanoma) of the same compound?
The TGI was 56.7 µM.

And the GI50 (SF-539 CNS)?
The GI50 was 4.59 µM.

What about the TGI (SF-539 CNS) of the same compound?
The TGI was 22 µM.

What about the GI50 (NCI-H460 lung) of the same compound?
Its GI50 is 5.07 µM.

What about the TGI (NCI-H460 lung) of the same compound?
The TGI was > 100 µM.

What about the GI50 (HCT-15 colon) of the same compound?
Its GI50 is 13.7 µM.

What about the TGI (HCT-15 colon) of the same compound?
Its TGI is 69.4 µM.

What about the GI50 (T-47D breast) of the same compound?
Its GI50 is 18.4 µM.

And the TGI (T-47D breast)?
Its TGI is > 100 µM.

What about the GI50 (HOP-92 NSCLC) of the same compound?
Its GI50 is 10.9 µM.

What about the TGI (HOP-92 NSCLC) of the same compound?
The TGI was 31.3 µM.

What about the GI50 (NCI-H522 lung) of the same compound?
The GI50 was 1.91 µM.

What about the TGI (NCI-H522 lung) of the same compound?
Its TGI is 4.78 µM.

What does the source list for `CNCc1cccc2c1OCCOCCN(C)C(=O)CN(C)S(=O)(=O)c1ccc(cc1)-c1cnc(N)c(n1)C(=O)N2`?
GI50 (TK-10 renal): 2.71 µM; TGI (TK-10 renal): > 100 µM; GI50 (MCF7 breast): 0.0853 µM; TGI (MCF7 breast): > 100 µM; GI50 (UO-31 renal): > 100 µM; TGI (UO-31 renal): > 100 µM; GI50 (NCI/ADR-RES ovarian): > 100 µM; TGI (NCI/ADR-RES ovarian): > 100 µM; GI50 (CAKI-1 renal): 2.35 µM; TGI (CAKI-1 renal): > 100 µM; GI50 (786-0 renal): 0.669 µM; TGI (786-0 renal): 2.09 µM; GI50 (HT29 colon): 2.85 µM; TGI (HT29 colon): > 100 µM; GI50 (SK-MEL-5 melanoma): 6.63 µM; TGI (SK-MEL-5 melanoma): > 100 µM; GI50 (NCI-H23 lung): 0.299 µM; TGI (NCI-H23 lung): 3.47 µM; GI50 (A498 renal): 1.82 µM; TGI (A498 renal): 7.34 µM; GI50 (SF-295 CNS): 1.77 µM; TGI (SF-295 CNS): > 100 µM; GI50 (HCT-15 colon): 6.97 µM; TGI (HCT-15 colon): > 100 µM
